Test results as given in ChEMBL document CHEMBL3804802, “Novel sulfonamide bearing coumarin scaffolds as selective inhibitors of tumor associated carbonic anhydrase isoforms IX and XII” (Bioorg Med Chem, 2016).

molecular target: Carbonic anhydrase 9 (Homo sapiens, UniProt Q16790); assay: Inhibition of human carbonic anhydrase 9 using saturated CO2 as substrate incubated for 10 mins prior to testing by stopped-flow CO2 hydrase assay

| SMILES | Ki |
| --- | --- |
| Cc1ccc(-c2nn(-c3ccc(S(N)(=O)=O)cc3)cc2/C=N\Nc2nc(-c3cc4cc(Br)ccc4oc3=O)cs2)cc1 | 26 nM |
| NS(=O)(=O)c1ccc(-n2cc(/C=N\Nc3nc(-c4cc5cc(Cl)ccc5oc4=O)cs3)c(-c3ccc(F)cc3)n2)cc1 | 2.54 nM |
| NS(=O)(=O)c1ccc2c(c1)sc1nc(-c3cc4cc(Cl)ccc4oc3=O)cn12 | 11.4 nM |
| COc1ccc(-c2nn(-c3ccc(S(N)(=O)=O)cc3)cc2/C=N\Nc2nc(-c3cc4cc(Cl)ccc4oc3=O)cs2)cc1 | 20.4 nM |
| NS(=O)(=O)c1ccc2c(c1)sc1nc(-c3cc4ccccc4oc3=O)cn12 | 43.6 nM |
| C/C(=N\Nc1ccc(S(N)(=O)=O)cc1)c1cc2cc(Cl)ccc2oc1=O | 2.35 nM |
| Cc1ccc(-c2nn(-c3ccc(S(N)(=O)=O)cc3)cc2/C=N\Nc2nc(-c3cc4cc(Cl)ccc4oc3=O)cs2)cc1 | 24.5 nM |
| NS(=O)(=O)c1ccc(-n2cc(/C=N\Nc3nc(-c4cc5cc(Cl)ccc5oc4=O)cs3)c(-c3ccccc3)n2)cc1 | 28.3 nM |
| NS(=O)(=O)c1ccc(-n2cc(/C=N\Nc3nc(-c4cc5cc(Br)ccc5oc4=O)cs3)c(-c3ccc(F)cc3)n2)cc1 | 26.5 nM |
| COc1ccc(-c2nn(-c3ccc(S(N)(=O)=O)cc3)cc2/C=N\Nc2nc(-c3cc4cc(Br)ccc4oc3=O)cs2)cc1 | 20.1 nM |
| NS(=O)(=O)c1ccc(-n2cc(/C=N\Nc3nc(-c4cc5cc(Br)ccc5oc4=O)cs3)c(-c3ccc(Cl)cc3)n2)cc1 | 23.1 nM |
| C/C(=N\Nc1ccc(S(N)(=O)=O)cc1)c1cc2cc(Br)ccc2oc1=O | 23.6 nM |
| NS(=O)(=O)c1ccc(Nc2nc(-c3cc4cc(Cl)ccc4oc3=O)cs2)cc1 | 25 nM |
| NS(=O)(=O)c1ccc(-n2cc(/C=N\Nc3nc(-c4cc5cc(Cl)ccc5oc4=O)cs3)c(-c3ccc(Cl)cc3)n2)cc1 | 28.1 nM |
| NS(=O)(=O)c1ccc2c(c1)sc1nc(-c3cc4cc(Br)ccc4oc3=O)cn12 | 24.9 nM |

Results, then the compound that gave them:

| Ki | SMILES |
| --- | --- |
| 2.32 nM | NS(=O)(=O)c1ccc(-n2cc(/C=N\Nc3nc(-c4cc5ccccc5oc4=O)cs3)c(-c3ccc(Cl)cc3)n2)cc1 |
| 58.6 nM | C/C(=N\Nc1ccc(S(N)(=O)=O)cc1)c1cc2ccccc2oc1=O |
| 19.7 nM | NS(=O)(=O)c1ccc(-n2cc(/C=N\Nc3nc(-c4cc5ccccc5oc4=O)cs3)c(-c3ccccc3)n2)cc1 |
| 2.28 nM | NS(=O)(=O)c1ccc(-n2cc(/C=N\Nc3nc(-c4cc5ccccc5oc4=O)cs3)c(-c3ccc(F)cc3)n2)cc1 |
| 23.8 nM | NS(=O)(=O)c1ccc(Nc2nc(-c3cc4ccccc4oc3=O)cs2)cc1 |
| 21.6 nM | COc1ccc(-c2nn(-c3ccc(S(N)(=O)=O)cc3)cc2/C=N\Nc2nc(-c3cc4ccccc4oc3=O)cs2)cc1 |
| 23.6 nM | NS(=O)(=O)c1ccc(Nc2nc(-c3cc4cc(Br)ccc4oc3=O)cs2)cc1 |
| 28.6 nM | Cc1ccc(-c2nn(-c3ccc(S(N)(=O)=O)cc3)cc2/C=N\Nc2nc(-c3cc4ccccc4oc3=O)cs2)cc1 |
| 21.6 nM | NS(=O)(=O)c1ccc(-n2cc(/C=N\Nc3nc(-c4cc5cc(Br)ccc5oc4=O)cs3)c(-c3ccccc3)n2)cc1 |
